Measured values as given in the supplement of paper PMC6045584.
± gives the standard deviation of the averaged measurements.

Legend:
[1] = compound: Oc1ccc(/C=C/c2cc(O)cc(O)c2)cc1 [RESVERATROL]; assay: surviving fraction relative to DMSO-only wells; higher = less growth inhibition; conditions: exposure time: 5 days
Method in brief: (§1)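 Tumour cell lines were seeded in log phase at 250–500 cells per well into 384-well plates. Starting 24 hours later, inhibitors were present continuously for five days at 0.5, 1, 5, 10, 50, 100, 500 and 1000 nM. Surviving fraction, from CellTiter-Glo luminescence, is normalised to the median of DMSO-only wells. Three screens per line were required, with replicate Pearson r >0.7 and median Z' >0.3 for a line to be kept.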

[2] = compound: CS(=O)(=O)c1ccc(C(=O)Nc2ccc(Cl)c(-c3ccccn3)c2)c(Cl)c1 [VISMODEGIB]; assay: as above; conditions: exposure time: 5 days
Method in brief: as §1

Test System | surviving fraction ([1]; 0.5 nM) | surviving fraction ([1]; 1 nM) | surviving fraction ([1]; 5 nM) | surviving fraction ([1]; 10 nM) | surviving fraction ([1]; 50 nM) | surviving fraction ([1]; 100 nM) | surviving fraction ([1]; 500 nM) | surviving fraction ([1]; 1000 nM) | surviving fraction ([2]; 0.5 nM) | surviving fraction ([2]; 1 nM) | surviving fraction ([2]; 5 nM) | surviving fraction ([2]; 10 nM) | surviving fraction ([2]; 50 nM) | surviving fraction ([2]; 100 nM) | surviving fraction ([2]; 500 nM) | surviving fraction ([2]; 1000 nM)
PCI30 HEADNECK | 1 ± 0.031 | 1.02 ± 0.058 | 1.04 ± 0.03 | 1.1 ± 0.08 | 1.05 ± 0.031 | 1.13 ± 0.045 | 1.07 ± 0.082 | 1.16 ± 0.015 | 0.911 ± 0.028 | 0.956 ± 0.07 | 0.96 ± 0.04 | 0.947 ± 0.065 | 0.898 ± 0.079 | 0.949 ± 0.017 | 0.844 ± 0.077 | 0.876 ± 0.043
RDES SOFT TISSUE | 1.25 ± 0.14 | 1.25 ± 0.05 | 1.29 ± 0.042 | 1.32 ± 0.054 | 1.37 ± 0.13 | 1.35 ± 0.24 | 1.68 ± 0.053 | 1.67 ± 0.12 | 1.06 ± 0.088 | 1.1 ± 0.047 | 1.11 ± 0.22 | 1.16 ± 0.034 | 0.677 ± 0.3 | 0.83 ± 0.34 | 0.761 ± 0.18 | 0.717 ± 0.32
S68 BREAST | 0.829 ± 0.095 | 0.815 ± 0.21 | 0.993 ± 0.36 | 0.818 ± 0.095 | 1.14 ± 0.17 | 1 ± 0.059 | 1.1 ± 0.12 | 0.878 ± 0.066 | 0.99 ± 0.087 | 0.839 ± 0.11 | 1.21 ± 0.25 | 1.04 ± 0.2 | 0.762 ± 0.19 | 0.917 ± 0.23 | 0.805 ± 0.12 | 0.621 ± 0.058
SAOS2 BONE | 1.16 ± 0.15 | 1.24 ± 0.047 | 1.24 ± 0.091 | 1.23 ± 0.061 | 1.26 ± 0.11 | 1.22 ± 0.089 | 1.24 ± 0.084 | 1.18 ± 0.072 | 1.11 ± 0.052 | 1.097 ± 0.0075 | 1.08 ± 0.059 | 1.099 ± 0.0081 | 0.834 ± 0.082 | 0.954 ± 0.052 | 0.85 ± 0.036 | 0.916 ± 0.055
SCC003 HEADNECK | 1.05 ± 0.056 | 1.06 ± 0.15 | 1.14 ± 0.012 | 1.12 ± 0.058 | 1.06 ± 0.084 | 1.1 ± 0.064 | 1.09 ± 0.017 | 1.15 ± 0.075 | 0.956 ± 0.073 | 0.988 ± 0.029 | 1.05 ± 0.17 | 1.06 ± 0.11 | 0.918 ± 0.082 | 1.05 ± 0.14 | 0.852 ± 0.08 | 0.98 ± 0.056
SCC36 HEADNECK | 1.13 ± 0.082 | 1.14 ± 0.11 | 1.22 ± 0.044 | 1.19 ± 0.045 | 1.25 ± 0.07 | 1.25 ± 0.03 | 1.05 ± 0.099 | 1.16 ± 0.16 | 0.88 ± 0.031 | 0.979 ± 0.033 | 1.07 ± 0.048 | 1.05 ± 0.051 | 0.739 ± 0.094 | 0.779 ± 0.085 | 0.731 ± 0.071 | 0.721 ± 0.076
SCC47 HEADNECK | 1.09 ± 0.13 | 1.11 ± 0.096 | 1.09 ± 0.066 | 1.21 ± 0.038 | 1.21 ± 0.072 | 1.17 ± 0.051 | 1.09 ± 0.023 | 1.2 ± 0.057 | 0.968 ± 0.064 | 1 ± 0.07 | 0.992 ± 0.044 | 1.04 ± 0.07 | 0.892 ± 0.026 | 0.963 ± 0.026 | 0.9167 ± 0.004 | 0.954 ± 0.016
SCC90 HEADNECK | 1.01 ± 0.012 | 1.045 ± 0.0079 | 1.12 ± 0.15 | 1.08 ± 0.021 | 1.03 ± 0.061 | 1.05 ± 0.064 | 1.05 ± 0.019 | 0.956 ± 0.076 | 0.824 ± 0.014 | 0.945 ± 0.051 | 0.908 ± 0.092 | 1.01 ± 0.023 | 0.848 ± 0.026 | 0.84 ± 0.053 | 0.841 ± 0.015 | 0.881 ± 0.029
SG27 HEADNECK | 1.15 ± 0.14 | 1.02 ± 0.069 | 1.03 ± 0.067 | 1.06 ± 0.1 | 1.04 ± 0.083 | 1.17 ± 0.059 | 1.15 ± 0.085 | 1.08 ± 0.12 | 0.942 ± 0.013 | 0.974 ± 0.13 | 1 ± 0.062 | 0.962 ± 0.071 | 0.933 ± 0.039 | 0.961 ± 0.052 | 0.9 ± 0.052 | 1.03 ± 0.13
SG28 HEADNECK | 1.03 ± 0.12 | 1.07 ± 0.1 | 1.15 ± 0.11 | 1 ± 0.057 | 1.01 ± 0.005 | 1 ± 0.051 | 1.06 ± 0.053 | 1.03 ± 0.2 | 1 ± 0.033 | 0.995 ± 0.042 | 0.979 ± 0.096 | 0.921 ± 0.096 | 0.801 ± 0.043 | 0.831 ± 0.019 | 0.837 ± 0.076 | 0.929 ± 0.099
SG31 HEADNECK | 1.1 ± 0.23 | 1.23 ± 0.18 | 1.03 ± 0.095 | 1.13 ± 0.095 | 1.05 ± 0.15 | 0.975 ± 0.19 | 1.13 ± 0.18 | 1.42 ± 0.32 | 0.965 ± 0.17 | 1.01 ± 0.2 | 0.946 ± 0.088 | 1.11 ± 0.22 | 0.783 ± 0.031 | 0.94 ± 0.054 | 0.834 ± 0.049 | 0.826 ± 0.091
SG32 HEADNECK | 1.02 ± 0.14 | 0.975 ± 0.06 | 1.16 ± 0.25 | 0.989 ± 0.051 | 0.999 ± 0.018 | 1.05 ± 0.092 | 0.989 ± 0.2 | 1.01 ± 0.11 | 1.01 ± 0.031 | 1.08 ± 0.11 | 1.07 ± 0.17 | 1.58 ± 0.69 | 0.857 ± 0.06 | 1.08 ± 0.26 | 0.844 ± 0.14 | 0.873 ± 0.075
SG43 HEADNECK | 0.856 ± 0.14 | 1.06 ± 0.048 | 0.867 ± 0.23 | 0.914 ± 0.025 | 0.822 ± 0.13 | 0.794 ± 0.19 | 0.848 ± 0.14 | 0.898 ± 0.22 | 0.961 ± 0.18 | 1.15 ± 0.63 | 0.861 ± 0.075 | 0.972 ± 0.32 | 1.18 ± 0.35 | 0.9673 ± 0.0015 | 1.17 ± 0.3 | 1.18 ± 0.14
SIHA CERVIX | 1.02 ± 0.034 | 1.05 ± 0.041 | 1.116 ± 0.011 | 1.14 ± 0.066 | 1.07 ± 0.072 | 1.09 ± 0.045 | 1.09 ± 0.066 | 1.15 ± 0.02 | 0.961 ± 0.024 | 1.08 ± 0.038 | 1.03 ± 0.045 | 1.06 ± 0.025 | 0.923 ± 0.044 | 0.993 ± 0.12 | 0.895 ± 0.097 | 0.991 ± 0.064
SJSA1 BONE | 1.62 ± 0.083 | 1.74 ± 0.059 | 1.65 ± 0.053 | 1.79 ± 0.04 | 1.67 ± 0.13 | 1.74 ± 0.092 | 1.61 ± 0.13 | 1.78 ± 0.078 | 0.999 ± 0.043 | 1.01 ± 0.07 | 1.04 ± 0.024 | 1.01 ± 0.045 | 1.04 ± 0.073 | 1.02 ± 0.052 | 1.02 ± 0.093 | 0.985 ± 0.05
SKBR3 BREAST | 0.966 ± 0.15 | 1.06 ± 0.048 | 1.1 ± 0.1 | 1.07 ± 0.076 | 1.08 ± 0.053 | 1.09 ± 0.028 | 1.11 ± 0.12 | 1.04 ± 0.055 | 1.15 ± 0.085 | 0.954 ± 0.027 | 0.907 ± 0.059 | 0.975 ± 0.09 | 1.01 ± 0.068 | 0.896 ± 0.029 | 0.764 ± 0.026 | 0.774 ± 0.075
SNU475 LIVER | 0.98 ± 0.043 | 1.04 ± 0.029 | 1.02 ± 0.06 | 0.988 ± 0.029 | 0.9453 ± 0.006 | 1.01 ± 0.014 | 0.99 ± 0.035 | 1.04 ± 0.017 | 0.959 ± 0.046 | 0.946 ± 0.057 | 0.967 ± 0.019 | 0.982 ± 0.0087 | 0.884 ± 0.032 | 0.89 ± 0.03 | 0.869 ± 0.024 | 0.902 ± 0.012
SUM44 BREAST | 1.1 ± 0.1 | 1.18 ± 0.28 | 1.19 ± 0.27 | 1.25 ± 0.36 | 1.1 ± 0.17 | 1.21 ± 0.26 | 1.2 ± 0.3 | 1.31 ± 0.41 | 0.945 ± 0.033 | 0.951 ± 0.048 | 0.994 ± 0.017 | 0.934 ± 0.02 | 0.929 ± 0.051 | 0.9713 ± 0.0095 | 0.924 ± 0.14 | 0.876 ± 0.055
SUM149 BREAST | 0.958 ± 0.048 | 1.02 ± 0.07 | 1.04 ± 0.082 | 0.958 ± 0.013 | 1.07 ± 0.048 | 0.989 ± 0.062 | 1.09 ± 0.034 | 1.09 ± 0.1 | 0.871 ± 0.11 | 0.856 ± 0.042 | 0.968 ± 0.053 | 0.877 ± 0.0066 | 0.904 ± 0.1 | 0.887 ± 0.014 | 0.945 ± 0.088 | 0.895 ± 0.077
SUM149.B1*.S BREAST | 1.05 ± 0.056 | 1.09 ± 0.041 | 1.08 ± 0.051 | 1.1 ± 0.061 | 1.02 ± 0.036 | 1.128 ± 0.0016 | 1.09 ± 0.043 | 1.14 ± 0.026 | 0.992 ± 0.064 | 0.971 ± 0.056 | 0.981 ± 0.033 | 0.987 ± 0.039 | 0.922 ± 0.051 | 0.988 ± 0.0033 | 0.9072 ± 0.0081 | 0.913 ± 0.054
SUM159 BREAST | 1.04 ± 0.028 | 1.1 ± 0.024 | 1.06 ± 0.03 | 1.06 ± 0.021 | 1.033 ± 0.0053 | 1.07 ± 0.016 | 1.08 ± 0.018 | 1.11 ± 0.017 | 1.14 ± 0.23 | 1.12 ± 0.17 | 1.14 ± 0.22 | 1.15 ± 0.22 | 1.06 ± 0.12 | 1.08 ± 0.084 | 1.12 ± 0.2 | 1.11 ± 0.14
